Data on 18 compounds can be found in patent publication US6124460A, “Isoquinuclidine derivatives, method of manufacturing the same and therapeutic agents for hypercholesterolemia containing these compounds” (Kotobuki Pharmaceutical Co. Ltd., priority 1998, dated 2000).

Structures can show the parent of a compound that is named as a salt.

Assay [1] deals with T1, Squalene Synthase in Rat Liver Microsomes (Rattus norvegicus, UniProt Q02769).
T1 construct: microsomes were prepared from male Sprague-Dawley rat; from tissue; host or cells: rat liver microsomes (male Sprague-Dawley)
T1 sequence (Q02769 1-416): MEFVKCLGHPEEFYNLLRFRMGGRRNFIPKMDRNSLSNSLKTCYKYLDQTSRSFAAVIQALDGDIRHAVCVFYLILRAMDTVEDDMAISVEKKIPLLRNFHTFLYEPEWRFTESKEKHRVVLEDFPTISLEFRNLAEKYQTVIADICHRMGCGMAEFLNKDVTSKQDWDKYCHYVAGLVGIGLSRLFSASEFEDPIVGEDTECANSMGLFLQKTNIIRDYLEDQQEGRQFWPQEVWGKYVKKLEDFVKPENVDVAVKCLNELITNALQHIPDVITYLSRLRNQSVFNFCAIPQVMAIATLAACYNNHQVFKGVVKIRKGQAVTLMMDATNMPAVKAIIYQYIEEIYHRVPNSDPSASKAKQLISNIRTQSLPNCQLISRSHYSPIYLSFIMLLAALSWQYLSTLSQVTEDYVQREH
Description: Assay of squalene synthase (SQS) in rat liver microsomes. The assay is classed as biochemical, male Sprague-Dawley rat. The conditions noted are these: for IC50: 2.5 μM FPP, pH 7.4, 30 min at 37° C., read-out: Inhibition of SQS IC50; for Inhibition of SQS (N.E.; no effect at a dose in the parentheses): at 10^-5 M. On the procedure: 1. Assay of Squalene Synthase in Rat Liver Microsomes Squalene synthase assay was performed in accordance with the method described by [NT] (Biochem. Pharmacol., 51, 1477 (1996)). That is to say, microsomes were prepared from male Sprague-Dawley rat (weight range 250-300 g) by homogenising in 50 mM phosphate buffer, pH 7.4, 5.0 mM MgCl2, 1.0 mM EDTA, and 1.0 mM dithiothreitol using a polytron (Kinetica, Sweden). The homogenates were centrifuged at 10,000 g for 20 min at 4° C., and, after spinning the supernatants were poured into the tube through cotton gauze. Microsomes were then isolated from the supernatant by centrifugation at 178,000 g for 90 min at 4° C. Microsomes were then resuspended in homogenisation buffer and stored in aliquots at -80° C. until use. For in vitro studies, the compounds were dissolved in DMSO. The squalene synthase reaction system in a volume of 100 μl contained 50 mM phosphate buffer, pH 7.4, 5.0 mM MgCl2, 10 mM KF, 0.5 mM NADPH, 50 mM ascorbic acid, 20U /ml ascorbate oxidase, 2.5 μM farnesyl-pyrophosphate (FPP) and microsomes, 40 μg/ml. The compounds (in 1 μl DMSO), microsomes (in 10 μl buffer) and other reagent ([…]) were pre-incubated for 5 min at 37° C. The reactions were started by the addition of 5 μl of an aqueous solution of FPP containing about 0.1 μCi of [H] FPP; incubations were at 37° C. for 30 min. The reactions were then stopped by the addition of 50 μl of 20% KOH in 50% ethanol. […] The IC50 values were calculated.
(Liver microsomes are vesicles of endoplasmic reticulum, rich in cytochrome P450 enzymes.)

A further assay concerns Sterol Biosynthesis. Briefly: Assay of sterol biosynthesis in rats (inhibition of cholesterol biosynthesis). The assay is classed as in vivo. The conditions noted are these: female Sprague-Dawley rats, liver; for inhibition at 30 mg/kg: po, vs vehicle-treated controls; for inhibition at 30 mg/kg / Inhibition of cholesterol biosynthesis (N.E.; no effect at a dose in the parentheses): 30 mg/kg p.o.

With `C#Cc1ccc(OCCCN2C(=O)C3CCC2CC3)cc1` [Compound 5, 2-[3-(4-ethynylphenoxy)propane-1-yl]-2-azabicyclo[2.2.2]octane-3-one], the half-inhibitory concentration (IC50) in assay [1] came out at 11 nM. The compound also yielded an ED50 in the assay on Sterol Biosynthesis (Rattus norvegicus, oral gavage, [H] mevalonolactone i.p. after 1 hr) of 13.4 mg/kg. Turning to `CCOC(=O)C#Cc1ccc(OCCCN2C(=O)C3CCC2CC3)cc1` [Compound 6, Ethyl 4-[3-(3-oxo-2-azabicyclo[2.2.2]octan-2-yl)propoxy]phenylpropiolate], the IC50 in assay [1] stood at 3100 nM.

As for `O=C(O)C#Cc1ccc(OCCCN2C(=O)C3CCC2CC3)cc1` [Compound 7, 4-[3-(3-oxo-2-azabicyclo[2.2.2]octan-2-yl)propoxy]phenylpropiolic acid], the IC50 in assay [1] amounted to 490 nM. On to `C#Cc1ccc(OCCCN2CC3CCC2CC3)cc1` [Compound 10, 2-[3-(4-ethynylphenoxy)propane-1-yl]-2-azabicyclo[2.2.2]octane hydrochloride], for which the IC50 in assay [1] was found to be 19 nM. This compound returned an inhibition at 30 mg/kg with Sterol Biosynthesis (Rattus norvegicus) of 48.6%.

Regarding `CCOC(=O)C#Cc1ccc(OCCCN2CC3CCC2CC3)cc1` [Compound 12, Ethyl 4-[3-(2-azabicyclo[2.2.2]octan-2-yl)propoxy]phenylpropiolate hydrochloride], the IC50 in assay [1] is 64 nM.

Consider `C#Cc1ccc(OCCN2C(=O)C3CCC2CC3)cc1` [Compound 13, 2-[2-(4-ethynylphenoxy)ethyl]-2-azabicyclo[2.2.2]octane-3-one], for which, in assay [1], the “Inhibition of SQS (N.E.; no effect at a dose in the parentheses)” value is “N.E”. This compound also yielded an inhibition at 30 mg/kg in the assay with Sterol Biosynthesis (Rattus norvegicus) of 30.3%. Regarding `C#Cc1ccc(OCCCCN2C(=O)C3CCC2CC3)cc1` [Compound 14, 2-[4-(4-ethynylphenoxy)butane-1-yl]-2-azabicyclo[2.2.2]-octane-3-one], the IC50 in assay [1] worked out at 490 nM. The same measure, in the same setting: as for `CCOC(=O)c1ccc(C#Cc2ccc(OCCCN3C(=O)C4CCC3CC4)cc2)cc1` [Compound 15, Ethyl 4-[4-[3-(3-oxo-2-azabicyclo[2.2.2]octan-2-yl)propoxy]phenylethynyl]-benzoate], the figure is 410 nM. As for `O=C(O)c1ccc(C#Cc2ccc(OCCCN3C(=O)C4CCC3CC4)cc2)cc1` [Compound 16, 4-[4-[3-(3-oxo-2-azabicyclo[2.2.2]octan-2-yl)propoxy]phenylethynyl]-benzoic acid], the IC50 in assay [1] worked out at 23 nM. Moreover, the “Inhibition of cholesterol biosynthesis (N.E.; no effect at a dose in the parentheses)” value with Sterol Biosynthesis was “N.E”. Consider `Cl.O=C(O)c1ccc(C#Cc2ccc(OCCCN3CC4CCC3CC4)cc2)cc1` [Compound 19, 4-[4-[3-(2-azabicyclo[2.2.2]octan-2-yl)propoxy]phenylethynyl]-benzoic acid hydrochloride], for which the IC50 in assay [1] was 39 nM. The “Inhibition of cholesterol biosynthesis (N.E.; no effect at a dose in the parentheses)” value with Sterol Biosynthesis is “N.E”. Regarding `CCOC(=O)c1ccc(C#Cc2ccc(OCCCN3CC4CCC3CC4)cc2)cc1` [Compound 20, Ethyl 4-[4-[3-(2-azabicyclo[2.2.2]octan-2-yl)propoxy]phenylethynyl]-benzoate hydrochloride], the half-maximal inhibitory concentration (IC50) in assay [1] amounted to 690 nM. Consider `O=C(O)c1ccc(C#Cc2ccc(OCCCN3C(=O)C4CCC3CC4)cc2)s1` [Compound 21, 5-[4-[3-(3-oxo-2-azabicyclo[2.2.2]octan-2-yl)propoxy]phenylethynyl]-thiophene-2-carboxylic acid], for which, in assay [1], the IC50 came to 56 nM.

Regarding `O=C1C2CCC(CC2)N1CCCOc1ccc(C#Cc2cccc3ncccc23)cc1` [Compound 22, 2-[3-[4-(quinolin-5-yl-ethynyl)phenoxy]propan-1-yl]-2-azabicyclo[2.2.2]-octan-3-one hydrochloride], the IC50 in assay [1] was found to be 15 nM. Besides, the inhibition at 30 mg/kg with Sterol Biosynthesis (Rattus norvegicus) amounted to 25.1%. Taken in the same sequence, the figures for `O=C1C2CCC(CC2)N1CCCOc1ccc(C#Cc2ccc(-c3cccc4ncccc34)cc2)cc1` [Compound 23, 2-[3-[4-[4-(quinolin-5-yl)phenylethynyl]phenoxy]propan-1-yl]-2-azabicyclo[2.2.2]octan-3-one hydrochloride] were 69 nM and 46.7%. In the case of `O=C1C2CCC(CC2)N1CCCOc1ccc(C#Cc2ccc(N3C(=O)C4CCC3CC4)cc2)cc1` [Compound 24, 2-[3-[4-[4-(3-oxo-2-azabicyclo[2.2.2]octan-2-yl)phenylethynyl]phenoxy]propan-1-yl]-2-azabicyclo[2.2.2]octan-3-one], the concentration for half-maximal inhibition (IC50) in assay [1] was found to be 56000 nM. Turning to `C(#Cc1cccc2ncccc12)c1ccc(OCCCN2CC3CCC2CC3)cc1` [Compound 25, 2-[3-[4-(quinolin-5-yl-ethynyl)phenoxy]propan-1-yl]-2-azabicyclo[2.2.2]-octane dihydrochloride], the IC50 in assay [1] stood at 31 nM. In the case of `C#Cc1ccc(OCCCN2C(=O)C3CCC2CC3)c(CC=C)c1` [Compound 37, 2-[3-[(2-allyl-4-ethynyl)phenoxy]propane-1-yl]-2-azabicyclo[2.2.2]oct-3-one], in assay [1], the “Inhibition of SQS (N.E.; no effect at a dose in the parentheses)” value was “N.E”. Regarding `C#Cc1ccc(OCCCN2CC3CCC2CC3)c(CC=C)c1` [Compound 38, 2-[3-[(2-Allyl-4-ethynyl)phenoxy]propane-1-yl]-2-azabicyclo[2.2.2]octane hydrochloride], the IC50 in assay [1] was 11 nM. Further, 30 mg/kg produced 50.4% inhibition in the assay on Sterol Biosynthesis (Rattus norvegicus).

The IC50 is the concentration that inhibits the measured activity by half. For orientation: ED50 means the dose that gives a 50% effect, or the effect in half of the subjects. High values mean a need for a large dose, low ones an effect at a small dose. One may read the inhibition as the share of the control response that was lost under treatment. A high value points to strong suppression.
